These results are taken from patent publication US20250235486A1, “Method of Producing Insulin-Producing Cells” (Monash University, priority 2022, published 2025).

Test [1] deals with human exocrine (acinar and ductal) cells. Briefly: qRT-PCR gene expression in human exocrine (acinar and ductal) cells from a non-diabetic donor. Format: cell-based. The settings on record: 48 hours: GSK126 10 μM, CPI-1205 5 μM, ursolic acid 5 μM, GSK343 5 μM, EPZ-6438 5 μM. As to the method: (§1) Exocrine cells from a non-diabetic human and a marmoset were cultured and assayed in Miami/CMRL medium. The human exocrine cells were sourced from the Islet Transplant Unit of St Vincent's Institute for Medical Research. The marmoset exocrine cells were sourced from the Australian Regenerative Medicine Institute (ARMI), Monash University. Miami media is based on CMRL 1066 media (Connaught Medical Research Lab) supplemented with: Insulin, Transferrin & Selenium (ITS), human serum, Vitamin E, sodium pyruvate, zinc and HEPES. Pharmacological inhibition of EZH2 and gene expression analysis were performed as described in Example 1.

The test system of test [2] is H3K27me3 or H3K9/14ac content at the promoters of INS-IGF2, NGN3 and PDX1 in human pancreatic ductal epithelial cells. As to the kind of experiment: Quantitative PCR chromatin immunoprecipitation (q-PCR ChIP) after 2- and 7-day stimulation. Format: cell-based. The settings on record: 7 days (FIG. 12c). As to the method: Approximately 5×10^6 cells were fixed in 1% formaldehyde for 10 minutes, with a further 10-minute incubation in 0.125M glycine to quench the cross-linking reaction. The fixed cell pellet was lysed following resuspension and homogenization in sodium dodecyl (lauryl) sulphate (SOS) lysis buffer (1% SOS, 10 mM EDTA, 50 mM Tris-HCl pH 8.1) with a protease inhibitor cocktail (Roche Diagnostics GmBH, Mannheim, Germany) included. Samples were incubated on ice for 5 minutes following which sonication was performed to shear chromatin between 200-600 bp. Sonicated chromatin was resuspended in ChIP Dilution Buffer (0.01% SOS, 1.1% Triton X-100, 1.2 mM EDTA, 16.7 mM Tris-HCl pH 8.0 and 167 mM NaCl). 20 μl of DynabeadsR Protein A (Invitrogen, Carlsbad, CA, USA) was added to each sample and pre-cleared. Overnight incubation at 4° C. with H3K27me3 or H3K9/14ac antibody was used for immunoprecipitation of chromatin, as previously described. Immunoprecipitates were collected by magnetic isolation and washed sequentially with low salt and high salt buffers. Immunoprecipitated DNA was then eluted from solution with 0.1 M NaHCO3 containing 1% SIDS. Protein-DNA cross-links were reversed by incubation of samples in Proteinase K (Sigma, St. Louis, MO, USA) for 2 hours at 62° C. DNA was purified using a Qiagen MinElute column (Qiagen Inc., Valencia, CA, USA). H3K27me3 or H3K9/14ac content at the promoters of the INS-IGF2, NGN3 and PDX1 genes were assessed by qPCR using primers designed from the integrative ENCODE resource.

The target in test [3] is T1, EZH2 (Homo sapiens, UniProt Q15910).
T1 construct: Flag
The note with it: assay of methylation activity as described in the cited paper for each compound; cited from earlier work.

For test [4], the system named is Human pancreatic ductal epithelial cells. As to the kind of experiment: qRT-PCR after 2- and 7-day EZH2 inhibitor stimulation of human pancreatic ductal epithelial cells. The note with it: GSK-126 10 μM, Triptolide 20 nM. The format is cell-based. On the technique in general: Quantitative PCR measures a nucleic acid by following its amplification.
Method: Human pancreatic ductal epithelial cells were purchased from AddexBio and cultured according to the recommended protocols. Cells were cultured in complete Keratinocyte Serum-Free Media (supplemented with human recombinant EGF, Bovine Pituitary Extract and Antibiotic-Antimycotic [Gibco]. All cell cultures were grown and maintained in a 37° C., 5% C02 environment using a tissue culture incubator. Once cells reached 70-80% confluency, passaging was performed using 0.05% Trypsin EDTA (Sigma). […] Vehicle control was DMSO. Cells were treated over 2 main timepoints, with harvests occurring following 2, and 7 days. For the 2-day time point, cells were seeded and left to adhere in plates for 24 hours. Treatment was initiated with the first dose made up in complete K-SFM. The second dose was delivered 24 hours later following a media change. For the longer period of 7 days, cells were initially seeded in 10 cm plates, with doses delivered on alternate days following the initial period of 24 hours. […] Ct values of experimental genes were normalized to housekeeping gene [MUT]. Fold change of mRNA abundance was calculated by normalizing drug treated values to vehicular controls. […] RNA was isolated using the RNeasy Kit according to the manufacturer's directions. Following measurement of RNA concentration using a QIAxpert System, 1 μg of RNA was used for cDNA synthesis by a high-capacity cDNA Reverse Transcription Kit (Applied Biosystems). The resulting cDNA reaction mix was diluted 1:6 to make up the final template cDNA used subsequently. […] Ct values of experimental genes were normalized to housekeeping gene [MUT]. Fold change of mRNA abundance was calculated by normalizing drug treated values to vehicular controls.
The test system is the same in test [5]. As to the kind of experiment: Glucose stimulated insulin secretion assay (ELISA). Format: cell-based. (In an ELISA, binding on a coated surface is turned into a signal by an enzyme label.)
Method: 5×10^5 cells were seeded in 12-well plates and allowed to adhere for 24 hours. […] Next, cells were cultured in 28 mM (High) glucose Krebs Buffer solution and incubated for 1 hour to obtain the glucose stimulated insulin secretion. Supernatant was collected and Ultrasensitive Insulin ELISA (Mercodia) was used to determine the concentration of insulin according to manufacturer's instructions. Fold change of insulin secreted by cells were calculated by adjusting to cells stimulated with EZH2 inhibitors for insulin concentrations compared to control.
Test [6] has as its system Human immortalised ductal cell line. Briefly: qRT-PCR gene expression in human immortalised ductal cell line. The format is cell-based. The note with it: ursolic acid 1, 2.5 or 5 μM; GSK126 5, 10 or 20 μM. As to the method:
Human immortalised ductal cell line (Catalog #: T0018001, Addexbio) was cultured and assayed in Keratinocyte SFM (serum-free medium) (Catalog number 17005042, ThermoFisher Scientific, USA). Pharmacological inhibition of EZH2 and gene expression analysis were performed as described in Example 1.

The subject of test [7] is marmoset exocrine (acinar and ductal) cells. As to the kind of experiment: qRT-PCR gene expression in marmoset exocrine (acinar and ductal) cells. The format is cell-based. The settings on record: 48 hours: GSK126 10 μM, ursolic acid 5 μM. How it is done:
as §1

T1 sequence (Q15910 whole entry): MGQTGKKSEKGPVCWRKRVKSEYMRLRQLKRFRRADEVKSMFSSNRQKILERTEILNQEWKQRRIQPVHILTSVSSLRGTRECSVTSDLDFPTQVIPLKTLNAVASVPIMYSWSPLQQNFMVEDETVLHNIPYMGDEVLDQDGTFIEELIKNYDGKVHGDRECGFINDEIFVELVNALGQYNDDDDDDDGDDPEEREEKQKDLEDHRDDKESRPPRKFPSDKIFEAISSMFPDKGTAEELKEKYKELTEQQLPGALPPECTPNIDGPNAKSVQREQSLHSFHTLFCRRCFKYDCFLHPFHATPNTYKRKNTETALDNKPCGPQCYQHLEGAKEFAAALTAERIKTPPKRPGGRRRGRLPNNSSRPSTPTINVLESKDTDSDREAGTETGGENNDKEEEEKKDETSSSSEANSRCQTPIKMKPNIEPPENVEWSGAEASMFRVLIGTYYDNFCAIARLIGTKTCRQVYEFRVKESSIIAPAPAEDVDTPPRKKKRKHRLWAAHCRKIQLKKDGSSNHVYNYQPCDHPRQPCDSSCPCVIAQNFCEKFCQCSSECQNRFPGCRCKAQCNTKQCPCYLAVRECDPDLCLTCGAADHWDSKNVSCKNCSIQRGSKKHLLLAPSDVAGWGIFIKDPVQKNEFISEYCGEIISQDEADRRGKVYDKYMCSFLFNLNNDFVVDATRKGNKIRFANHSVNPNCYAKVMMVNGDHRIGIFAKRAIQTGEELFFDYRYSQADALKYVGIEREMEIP
T1 sequence (O75530 whole entry partner): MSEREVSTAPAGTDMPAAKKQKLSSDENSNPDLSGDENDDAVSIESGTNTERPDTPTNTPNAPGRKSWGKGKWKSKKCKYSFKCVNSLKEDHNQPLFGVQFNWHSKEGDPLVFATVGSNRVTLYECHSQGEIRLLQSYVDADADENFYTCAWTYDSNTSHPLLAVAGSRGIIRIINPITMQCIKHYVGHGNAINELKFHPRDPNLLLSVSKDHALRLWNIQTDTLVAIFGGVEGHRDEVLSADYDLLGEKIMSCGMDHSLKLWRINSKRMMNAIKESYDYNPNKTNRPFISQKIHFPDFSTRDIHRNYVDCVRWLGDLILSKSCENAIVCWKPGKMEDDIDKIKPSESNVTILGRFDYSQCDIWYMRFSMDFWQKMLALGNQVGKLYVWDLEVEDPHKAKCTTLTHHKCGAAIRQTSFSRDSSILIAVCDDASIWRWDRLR
T1 sequence (Q15022 whole entry partner): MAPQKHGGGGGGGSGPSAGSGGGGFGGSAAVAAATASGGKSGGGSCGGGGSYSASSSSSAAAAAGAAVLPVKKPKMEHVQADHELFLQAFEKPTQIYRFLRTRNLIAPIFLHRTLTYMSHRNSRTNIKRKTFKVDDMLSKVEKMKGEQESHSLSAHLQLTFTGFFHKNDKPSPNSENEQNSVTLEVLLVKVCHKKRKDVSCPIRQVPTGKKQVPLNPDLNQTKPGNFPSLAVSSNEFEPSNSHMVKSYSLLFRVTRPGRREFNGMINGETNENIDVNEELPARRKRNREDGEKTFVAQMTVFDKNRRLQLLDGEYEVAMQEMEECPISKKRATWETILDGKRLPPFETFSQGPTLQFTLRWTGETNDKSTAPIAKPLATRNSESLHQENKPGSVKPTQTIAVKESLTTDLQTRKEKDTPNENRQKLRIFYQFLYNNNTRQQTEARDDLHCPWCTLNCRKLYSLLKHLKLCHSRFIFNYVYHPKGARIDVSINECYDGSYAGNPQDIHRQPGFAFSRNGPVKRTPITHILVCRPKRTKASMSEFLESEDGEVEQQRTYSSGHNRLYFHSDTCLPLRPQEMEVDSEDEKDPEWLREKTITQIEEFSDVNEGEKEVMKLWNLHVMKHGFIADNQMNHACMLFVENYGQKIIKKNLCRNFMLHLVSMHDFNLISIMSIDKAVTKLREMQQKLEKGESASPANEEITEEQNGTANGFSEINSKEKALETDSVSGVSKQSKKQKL
T1 sequence (Q6ZN18 whole entry partner): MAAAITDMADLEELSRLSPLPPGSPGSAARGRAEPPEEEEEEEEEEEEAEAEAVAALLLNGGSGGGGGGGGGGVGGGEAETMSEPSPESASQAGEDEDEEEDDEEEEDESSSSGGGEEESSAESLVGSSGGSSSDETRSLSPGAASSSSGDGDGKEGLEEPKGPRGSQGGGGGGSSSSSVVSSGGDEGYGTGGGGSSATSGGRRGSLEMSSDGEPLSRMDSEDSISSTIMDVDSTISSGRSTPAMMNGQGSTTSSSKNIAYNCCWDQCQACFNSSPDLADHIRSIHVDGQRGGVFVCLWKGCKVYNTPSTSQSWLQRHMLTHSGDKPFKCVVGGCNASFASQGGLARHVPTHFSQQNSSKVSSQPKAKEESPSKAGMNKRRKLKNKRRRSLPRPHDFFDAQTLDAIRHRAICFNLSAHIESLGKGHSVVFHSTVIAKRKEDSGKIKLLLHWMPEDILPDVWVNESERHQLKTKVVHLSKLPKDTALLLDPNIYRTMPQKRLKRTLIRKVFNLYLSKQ
T1 sequence (Q09028 whole entry partner): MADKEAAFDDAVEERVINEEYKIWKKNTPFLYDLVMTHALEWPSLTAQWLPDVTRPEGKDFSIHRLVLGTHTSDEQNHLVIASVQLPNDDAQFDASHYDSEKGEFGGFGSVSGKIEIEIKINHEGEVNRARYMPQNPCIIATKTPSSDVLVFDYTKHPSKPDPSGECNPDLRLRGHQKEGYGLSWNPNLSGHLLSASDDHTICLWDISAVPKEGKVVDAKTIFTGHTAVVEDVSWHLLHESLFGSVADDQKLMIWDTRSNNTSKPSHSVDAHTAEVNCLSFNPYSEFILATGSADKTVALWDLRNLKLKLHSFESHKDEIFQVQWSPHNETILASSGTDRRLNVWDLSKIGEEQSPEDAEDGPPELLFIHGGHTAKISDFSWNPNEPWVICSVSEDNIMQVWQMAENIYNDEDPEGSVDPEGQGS

On to `COc1cc(C)[nH]c(=O)c1CNC(=O)c1c(C)n([C@H](C)C2CCN(CC(F)(F)F)CC2)c2ccccc12` [CPI-1205, N-[(1,2-Dihydro-4-methoxy-6-methyl-2-oxo-3-pyridinyl)methyl]-2-methyl-1-[(1R)-1-[1-(2,2,2-trifluoroethyl)-4-piperidinyl]ethyl]-1H-indole-3-carboxamide], for which the “mRNA expression of Insulin, Pdx1 and Ngn3” value (“mRNA expression of Insulin” below) in test [1] was “stimulated expression of one, two or all of Insulin, Pdx1 and Ngn3”.
Take `CCN(c1cc(-c2ccc(CN3CCOCC3)cc2)cc(C(=O)NCc2c(C)cc(C)[nH]c2=O)c1C)C1CCOCC1` [EPZ-6438, N-[(1,2-Dihydro-4,6-dimethyl-2-oxo-3-pyridinyl)methyl]-5-[ethyl(tetrahydro-2H-pyran-4-yl)amino]-4-methyl-4′-(4-morpholinylmethyl)[1,1′-biphenyl]-3-carboxamide]: in test [1], the “mRNA expression of Insulin” value is “stimulated expression of one, two or all of Insulin, Pdx1 and Ngn3”. Besides, the “H3K27me3 content of PDX1” value in test [2] is recorded as “reduced”.
In the case of `CCCc1cc(C)[nH]c(=O)c1CNC(=O)c1cc(-c2ccnc(N3CCN(C)CC3)c2)cc2c1cnn2C(C)C` [GSK343, N-[(1,2-Dihydro-6-methyl-2-oxo-4-propyl-3-pyridinyl)methyl]-1-(1-methylethyl)-6-[2-(4-methyl-1-piperazinyl)-4-pyridinyl]-1H-indazole-4-carboxamide], the “mRNA expression of Insulin” value in test [1] was “stimulated expression of one, two or all of Insulin, Pdx1 and Ngn3”. Further, the concentration for half-maximal inhibition (IC50) in test [3] is 4 nM.
In the case of `CC(C)[C@]12O[C@H]1[C@@H]1O[C@]13[C@]1(O[C@H]1C[C@H]1C4=C(CC[C@@]13C)C(=O)OC4)[C@@H]2O` [Triptolide, (3bS,4aS,5aS,6R,6aR,7aS, 7bS,8aS,8bS)-3b,4,4a,6,6a,7a,7b,8b,9,10-Decahydro-6-hydroxy-8b-methyl-6a-(1-methylethyl)trisoxireno[4b,5: 6,7:8a,9]phenanthro[1,2-c]furan-1(3H)-one], the “MAFA mRNA levels” value in test [4] (2-day point) was “increased in a statistically significant manner”. In test [4] (2 days, EPZ6438 1 μM), the CK19 expression result is “statistically significant decreases”; the “NGN3 mRNA levels” value was “significantly elevated”; the “insulin transcripts, mature mRNA (INS)” value is reported as “elevations”; the “insulin transcripts, unprocessed heterogenous nuclear form (INS hnRNA)” value is “elevations”. Besides, in test [4] (7 days, EPZ6438 1 μM), the “NGN3 mRNA levels” value is “Further increases”; the “insulin transcripts, mature mRNA (INS)” value is “even further increases”; the “insulin transcripts, unprocessed heterogenous nuclear form (INS hnRNA)” value is on record as “even further increases”. Besides, in test [5] (2-day stimulation (FIG. 13d), GSK126 10 μM, EPZ6438 1 μM, Triptolide 20 nM, not observed in DMSO control), the “insulin concentration after incubation in high-glucose media (28 mM glucose, 1 hour)” value is reported as “significant elevations”. The “Release of insulin (glucose stimulated)” value in test [5] (7 days stimulation (FIG. 13e)) is on record as “maintained”.
Take `C[C@H]1[C@H](C)CC[C@]2(C(=O)O)CC[C@]3(C)C(=CC[C@@H]4[C@@]5(C)CC[C@H](O)C(C)(C)[C@@H]5CC[C@]43C)[C@H]12` [Ursolic acid, 3β-Hydroxyurs-12-en-28-oic acid]: in test [6], the “Insulin mRNA expression” value is recorded as “stimulated expression”, the “Ngn3 mRNA expression” value is “stimulated expression” and the “Pdx1 mRNA expression” value is on record as “stimulated expression”. Also, the “mRNA expression of Insulin” value in test [1] was “stimulated expression of one, two or all of Insulin, Pdx1 and Ngn3”. In addition, in test [7], the “Insulin mRNA expression” value is “stimulated expression” and the “Pdx1 mRNA expression” value was “stimulated expression”.

In general, IC50 refers to the concentration that inhibits the measured activity by half.
